According to patent US20100197643A1, “PHYTOCHEMICAL-RICH OILS AND METHODS RELATED THERETO” (priority 2007, published 2010):
Each block holds one compound with its values, some of them ahead of it.

How the values were obtained:
caspase-3 = experiment: Caspase-3 activation in HL-60 cells; type: cell-based, human; conditions: optimal time (2, 3, 4 hours tested), highest concentration
[1] = Phenolic storage stability of açai oil, 10 weeks at 20, 30, 40° C.; type: physicochemical; conditions: for change in concentration after storage: 10 weeks at 20 or 30 ° C.
Caco-2 cell monolayers = experiment: Transepithelial transport model, apical to basolateral; type: in vitro ADME; conditions: 2 hours, 37° C., not affected by initial polyphenolic concentration

Structure (SMILES): O=c1c(O)c(-c2ccc(O)c(O)c2)oc2cc(O)cc(O)c12 [Quercetin, quercetin]
caspase-3 activation (maximal) (caspase-3): double

Structure (SMILES): O=C(O)c1ccc(O)c(O)c1 [protocatechuic acid, 3,4-dihydroxybenzoic acid]
change in concentration after storage [1]: no significant changes

Structure (SMILES): CC[C@@]1(O)C(=O)OCc2c1cc1n(c2=O)Cc2cc3ccccc3nc2-1 [camptotechin]
caspase-3 activation (maximal) (caspase-3): 7 fold

Structure (SMILES): O=C(O)c1ccc(O)cc1 [p-hydroxybenzoic acid]
transport efficiency (percentage of initial apical concentration detected on basolateral side) (Caco-2 cell monolayers; from açai pulp extracts): approximately 2.0%
change in concentration after storage [1]: no significant changes

change in concentration after storage [1]: no significant changes
Structure (SMILES): COc1cc(C(=O)O)ccc1O [vanillic acid]

Structure (SMILES): COc1cc(/C=C/C(=O)O)ccc1O [ferulic acid]
transport efficiency (percentage of initial apical concentration detected on basolateral side) (Caco-2 cell monolayers; from açai oil extracts): approximately 0.1%
decrease in concentration after storage ([1]; 10 weeks at 20° C.): 9.3%
decrease in concentration after storage ([1]; 10 weeks at 30° C.): 20.3%
decrease / change in concentration after storage ([1]; 10 weeks at 40° C.): 33.1%

Structure (SMILES): COc1cc(C(=O)O)cc(OC)c1O [syringic acid]
transport efficiency (percentage of initial apical concentration detected on basolateral side) (Caco-2 cell monolayers; from açai pulp extracts): approximately 0.6%
change in concentration after storage [1]: no significant changes

Structure (SMILES): Oc1cc(O)c2c(c1)O[C@H](c1ccc(O)c(O)c1)[C@@H](O)C2 [(+)-catechin]
transport efficiency (percentage of initial apical concentration detected on basolateral side) (Caco-2 cell monolayers; from açai oil extracts): approximately 0.1%
change in concentration after storage [1]: no significant changes
